The test system of one experiment is NFκB pathway, CyclinD1. The experiment in a line: NFκB pathway activation and CyclinD1 expression in mammary epithelial cells after MPA. The experiment is classed as in vivo, mouse. To be noted: three day MPA treatment. An excerpt:
a, Activation of the NFκB pathway and CyclinD1 expression by MPA. Nulliparous RANK^Δmam and littermate control females were s.c. implanted with slow-release MPA pellets or treated with sham surgery. a, In situ immunostaining to detect phosphorylated (P) IκBα in mammary epithelial cells of RANK^Δmam and littermate control females after 3d MPA treatment. b, Western blot analysis of CyclinD1 and RANKL in isolated mammary epithelial cells from RANK^Δmam and littermate control females after 3d MPA treatment. Recombinant, murine sRANKL protein is shown for molecular size comparison. β-actin is shown as a loading control.
RANKL-RANK signaling via IKKα-NFκB-CyclinD1 in mammary epithelial cells is illustrated in FIG. 11a. […] To directly show whether RANK mediates NFκB-CyclinD1 activation downstream of progestins in vivo, mice were challenged with MPA. […] The Id2 pathway is a second genetically confirmed down-stream pathway for RANKL/RANK in mammary epithelial cells^17. To extend these findings to human, human SKBR3 breast tumor cells were assayed. […] To further test the effects of RANKL stimulation the ability of these cells to grow in an anchorage-independent manner was assessed, which correlates well with tumorigenicity in vivo^18.

Experiment [1] deals with human SKBR3 breast cancer cells. The experiment in a line: Western blotting of RANKL/RANK downstream signaling in SKBR3 cells. The class given is cell-based. To be noted: RANKL stimulation (1 μg/ml). As for the experimental part:
a, Western blotting for phosphorylated (P) p65 NFκB, total p65 NFκB, phosphorylated (P) IκBα, total IκBα, phosphorylated (P) ERK1/2, total ERK1/2, phosphorylated (P) p38-MAPK, and p38-MAPK in human SKBR3 breast cancer cells in response to RANKL stimulation (1 μg/ml). Data are representative of 3 experiments. b, Growth curve of SKBR3 breast cancer cells cultured in normal growth medium (control, DMEM supplemented with 10% FCS) or in the presence of RANKL (1 μg/ml). Cell numbers were determined by counting live cells (trypan blue-exclusion) over 3 days. c, Onset of palpable mammary tumors in NFATc1^Δmam (n=10) and age matched littermate control (n=16) females treated with MPA pellets and DMBA. Data are shown as percentage of tumor free mice after the last DMBA challenge. No significant difference was found. d, Quantification of NFATc1 mRNA expression in purified mammary epithelial cells (MECs) and MPA-driven mammary tumors from NFATc1^Δmam and littermate control females. mRNA was determined by qRT-PCR. Data are shown as fold change compared to control (+/−sem). n=5 Per group. *P<0.05 (Student's t-test).
The human epithelial breast tumor cell line SKBR3 and primary non-transformed mouse mammary epithelial cells were left untreated or stimulated with recombinant murine RANKL^ref. 9. Adenocarcinomas were isolated from control and mutant mice and total protein lysates prepared. […]

Here are results for two molecules from patent US20130316374A1, “BREAST CANCER DIAGNOSTICS” (IMBA - INSTITUT FUR MOLEKULARE BIOTECHNOLOGIE GMBH, priority 2010, published 2013).

Regarding `CC(=O)O[C@]1(C(C)=O)CC[C@H]2[C@@H]3C[C@H](C)C4=CC(=O)CC[C@]4(C)[C@H]3CC[C@@]21C` [MPA, medroxyprogesterone acetate], the “nuclear phosphorylated IκBα and CyclinD1 protein expression” value with NFκB pathway, CyclinD1 (RANK^Δmam female) is “severely reduced”. In addition, in the experiment on NFκB pathway, CyclinD1 (control females), the “CyclinD1 protein expression in mammary epithelial cells” value was “induction of CyclinD1 protein expression” and the “nuclear phosphorylated IκBα in mammary epithelial cells” value is on record as “nuclear accumulation of phosphorylated IκBα”.

B1: RANKL: Receptor Activator of NF-κB Ligand; recombinant murine RANKL used for stimulation (protein, UniProt O35235 139-316, looked up)
Tumor necrosis factor ligand …: FSGAPAMMEGSWLDVAQRGKPEAQPFAHLTINAASIPSGSHKVTLSSWYHDRGWAKISNMTLSNGKLRVNQDGFYYLYANICFRHHETSGSVPTDYLQLMVYVVKTSIKIPSSHNLMKGGSTKNWSGNSEFHFYSINVGGFFKLRAGEEISIQVSNPSLLDPDQDATYFGAFKVQDID
Regarding B1, in experiment [1], the “NFκB, p38-MAPKs and ERK activation” value was “induced NFκB, p38-MAPKs and ERK activation”.
